Measured values from patent US20230089073A1 (Carmot Therapeutics, Inc., priority 2021, published 2023).

molecular target: T1, human GLP-1 receptor (Homo sapiens, UniProt P43220); assay: GLP-1R cAMP Assay; type: cell-based; conditions: cAMP accumulation in CHO cells stably overexpressing the human GLP-1 receptor; 30 min treatment; HitHunter cAMP kit; read-out: EC50
T1 construct: expressed in transfected cells
Outline: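 Luminescent enzyme-complementation detection of cAMP, read after cell lysis and overnight incubation, with dose-response curve fitting. Stimulation lasted 30 min, using 20-point triplicate dosing on CHO cells (10,000 per well) stably overexpressing human GLP-1R.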

T1 sequence (P43220 24-463): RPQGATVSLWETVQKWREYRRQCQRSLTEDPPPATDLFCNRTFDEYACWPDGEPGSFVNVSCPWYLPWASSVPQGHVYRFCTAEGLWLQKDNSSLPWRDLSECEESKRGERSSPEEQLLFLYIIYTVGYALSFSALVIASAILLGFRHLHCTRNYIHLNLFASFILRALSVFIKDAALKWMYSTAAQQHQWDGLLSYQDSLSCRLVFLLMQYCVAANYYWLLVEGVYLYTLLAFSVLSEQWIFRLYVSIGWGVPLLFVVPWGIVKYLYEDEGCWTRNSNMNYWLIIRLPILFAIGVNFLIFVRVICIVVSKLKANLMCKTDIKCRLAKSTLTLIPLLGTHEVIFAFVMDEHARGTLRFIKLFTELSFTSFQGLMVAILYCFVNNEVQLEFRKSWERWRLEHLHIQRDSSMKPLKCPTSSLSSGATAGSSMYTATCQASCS

First: O=C(O)c1ccc2nc(CN3CCN(C(=O)c4ccc(Cc5ccc(Cl)cc5Cl)o4)CC3)n(C[C@@H]3CCO3)c2c1 [Example 59, (S)-2-((4-(5-(2,4-Dichlorobenzyl)furan-2-carbonyl)piperazin-1-yl)methyl)-1-(oxetan-2-ylmethyl)-1H-benzo[d]imidazole-6-carboxylic acid]
Second: C[C@H](Oc1ccc(Cl)cc1Cl)c1ccc(C(=O)N2CCN(Cc3nc4ccc(C(=O)O)cc4n3C[C@@H]3CCO3)CC2)o1 (single isomer, unassigned) [Example 96]
The EC50 of the first is lower: 50 to 500 nM for the first, > 500 nM for the second.

`O=C(O)c1ccc2nc(CN3CCC(Oc4ccnc(COc5ccc(Cl)cc5F)c4)CC3)n(C[C@@H]3CCO3)c2n1` [Compound 378] and `O=C(O)c1ccc2nc(CN3CCC(Oc4cc(COc5ccc(Cl)cc5F)ncc4F)CC3)n(C[C@@H]3CCO3)c2c1` [Compound 380, (S)-2-((4-((2-((4-chloro-2-fluorophenoxy)methyl)-5-fluoropyridin-4-yl)oxy)piperidin-1-yl)methyl)-1-(oxetan-2-ylmethyl)-1H-benzo[d]imidazole-6-carboxylic acid] cannot be ordered by EC50: < 50 nM for the first, < 50 nM for the second.

Going from `O=C(O)c1ccc2nc(CN3CCC(Oc4cccc(COc5ncc(Cl)cc5F)c4)CC3)n(C[C@@H]3CCO3)c2c1` [Compound 288, 2-{[4-(3-{[(5-chloro-3-fluoropyridin-2-yl)oxy]methyl}phenoxy)piperidin-1-yl]methyl}-1-{[(2S)-oxetan-2-yl]methyl}-1H-1,3-benzodiazole-6-carboxylic acid] to `N#Cc1cc(Cl)ccc1OCc1cccc(OC2CCN(Cc3nc4ccc(C(=O)O)cc4n3Cc3ncco3)CC2)c1` [Compound 232, 2-[(4-{3-[(4-chloro-2-cyanophenoxy)methyl]phenoxy}piperidin-1-yl)methyl]-1-[(1,3-oxazol-2-yl)methyl]-1H-1,3-benzodiazole-6-carboxylic acid], the EC50 falls from > 500 nM to < 50 nM. The second is the more potent here.

`O=C(O)c1ccc2nc(CN3CCC(Oc4ccnc(COc5ccc(Cl)cc5F)c4)CC3)n(CC3(CF)CC3)c2c1` [Compound 321] and `O=C(O)c1ccc2nc(CN3CCC(Oc4ccnc(COc5ccc(Cl)cc5F)c4)CC3)n(Cc3cnco3)c2c1` [Compound 265, 2-{[4-({2-[(4-chloro-2-fluorophenoxy)methyl]pyridin-4-yl}oxy)piperidin-1-yl]methyl}-1-[(1,3-oxazol-5-yl)methyl]-1H-1,3-benzodiazole-6-carboxylic acid] cannot be ordered by EC50: < 50 nM for the first, < 50 nM for the second.

`CCn1cncc1Cn1c(CN2CCC(Cc3cccc(COc4ccc(C)cc4Cl)n3)CC2)nc2ccc(C(=O)O)cc21` [Compound 120, 2-{[4-({6-[(2-chloro-4-methylphenoxy)methyl]pyridin-2-yl}methyl)piperidin-1-yl]methyl}-1-[(1-ethyl-1H-imidazol-5-yl)methyl]-1H-1,3-benzodiazole-6-carboxylic acid] and `CCn1cncc1Cn1c(CN2CCC(Cc3cccc(COc4ccc(Cl)cc4Cl)n3)CC2)nc2ccc(C(=O)O)cc21` [Compound 140, 2-{[4-({6-[(2,4-dichlorophenoxy)methyl]pyridin-2-yl}methyl)piperidin-1-yl]methyl}-1-[(1-ethyl-1H-imidazol-5-yl)methyl]-1H-1,3-benzodiazole-6-carboxylic acid] cannot be ordered by EC50: < 50 nM for the first, < 50 nM for the second.

`Cc1cc(C(C)C)ccc1Oc1cccc(C(=O)N2CCN(Cc3nc4ccc(C(=O)O)cc4n3C[C@@H]3CCO3)CC2)c1` [Example 89, (S)-2-((4-(3-(4-Isopropyl-2-methylphenoxy)benzoyl)piperazin-1-yl)methyl)-1-(oxetan-2-ylmethyl)-1H-benzo[d]imidazole-6-carboxylic acid] and `Cc1ccc(Cc2cccc(C(=O)N3CCN(Cc4nc5ccc(C(=O)O)cc5n4C[C@@H]4CCO4)CC3)c2)c(Cl)c1` [Example 32, (S)-2-((4-(3-(2-Chloro-4-methylbenzyl)benzoyl)piperazin-1-yl)methyl)-1-(oxetan-2-ylmethyl)-1H-benzo[d]imidazole-6-carboxylic acid] fall in the same range of EC50: 50 to 500 nM for the first, 50 to 500 nM for the second.

`O=C(O)c1cc(F)c2nc(CN3CCC(Oc4ccnc(COc5cc(F)c(F)cc5F)n4)CC3)n(C[C@@H]3CCO3)c2c1` [Compound 494, 4-fluoro-1-{[(2S)-oxetan-2-yl]methyl}-2-{[4-({2-[(2,4,5-trifluorophenoxy)methyl]pyrimidin-4-yl}oxy)piperidin-1-yl]methyl}-1H-1,3-benzodiazole-6-carboxylic acid] and `C[C@H]1C[C@@H](Oc2ccnc(COc3ccc(C#N)cc3F)n2)CCN1Cc1nc2c(F)cc(C(=O)O)cc2n1C[C@@H]1CCO1` [Compound 323] cannot be ordered by EC50: < 50 nM for the first, < 50 nM for the second.

`CCn1cncc1Cn1c(CN2CCC(Oc3ccnc(COc4ccc(Cl)cc4F)c3)CC2)nc2ccc(C(=O)O)cc21` [Example 230, 2-((4-((2-((4-Chloro-2-fluorophenoxy)methyl)pyridin-4-yl)oxy)piperidin-1-yl)methyl)-1-((1-ethyl-1H-imidazol-5-yl)methyl)-1H-benzo[d]imidazole-6-carboxylic acid] and `N#Cc1cc(Cl)ccc1OCc1cc(OC2CCN(Cc3nc4ccc(C(=O)O)cc4n3Cc3ccno3)CC2)ccn1` [Compound 241, 2-{[4-({2-[(4-chloro-2-cyanophenoxy)methyl]pyridin-4-yl}oxy)piperidin-1-yl]methyl}-1-[(1,2-oxazol-5-yl)methyl]-1H-1,3-benzodiazole-6-carboxylic acid] cannot be ordered by EC50: < 50 nM for the first, < 50 nM for the second.

`Cc1ccc(OCc2cccc(CC3CCN(Cc4nc5ccc(C(=O)O)cc5n4C[C@@H]4CCO4)CC3)n2)c(CO)c1` [Example 146, (S)-2-((4-((6-((2-(Hydroxymethyl)-4-methylphenoxy)methyl)pyridin-2-yl)methyl)piperidin-1-yl)methyl)-1-(oxetan-2-ylmethyl)-1H-benzo[d]imidazole-6-carboxylic acid] and `O=C(O)c1ccc2nc(CN3CCC(Cc4cnc(COc5ccc(Cl)cc5Cl)o4)CC3)n(C[C@@H]3CCO3)c2c1` [Example 60, (S)-2-((4-((2-((2,4-Dichlorophenoxy)methyl)oxazol-5-yl)methyl)piperidin-1-yl)methyl)-1-(oxetan-2-ylmethyl)-1H-benzo[d]imidazole-6-carboxylic acid] cannot be ordered by EC50: < 50 nM for the first, < 50 nM for the second.

First: N#CCC1(Cn2c(CN3CCC(Oc4ccnc(COc5ccc(Cl)cc5Cl)n4)CC3)nc3ccc(C(=O)O)cc32)CC1 [Compound 340]
Second: N#Cc1cc(Cl)ccc1OCc1cccc(OC2CCN(Cc3nc4ccc(C(=O)O)cc4n3Cc3ccno3)CC2)n1 [Compound 253, 2-{[4-({6-[(4-chloro-2-cyanophenoxy)methyl]pyridin-2-yl}oxy)piperidin-1-yl]methyl}-1-[(1,2-oxazol-5-yl)methyl]-1H-1,3-benzodiazole-6-carboxylic acid]
The EC50 of the first is lower: < 50 nM for the first, > 500 nM for the second.

`CCn1cncc1Cn1c(CN2CCC(Cc3ccc(COc4ccc(Cl)cc4Cl)o3)CC2)nc2ccc(C(=O)O)nc21` [Compound 108, 2-{[4-({5-[(2,4-dichlorophenoxy)methyl]furan-2-yl}methyl)piperidin-1-yl]methyl}-3-[(1-ethyl-1H-imidazol-5-yl)methyl]-3H-imidazo[4,5-b]pyridine-5-carboxylic acid] and `CCn1cncc1Cn1c(CN2CCC(CF)(Cc3ccnc(COc4ccc(Cl)cc4Cl)c3)CC2)nc2ccc(C(=O)O)cc21` [Example 164, 2-((4-((2-((2,4-Dichlorophenoxy)methyl)pyridin-4-yl)methyl)-4-(fluoromethyl)piperidin-1-yl)methyl)-1-((1-ethyl-1H-imidazol-5-yl)methyl)-1H-benzo[d]imidazole-6-carboxylic acid] cannot be ordered by EC50: < 50 nM for the first, < 50 nM for the second.

`CN(c1cc(C(=O)N2CCN(Cc3nc4ccc(C(=O)O)cc4n3C[C@@H]3CCO3)CC2)ncn1)C1CCCCC1` [Example 61, (S)-2-((4-(6-(Cyclohexyl(methyl)amino)pyrimidine-4-carbonyl)piperazin-1-yl)methyl)-1-(oxetan-2-ylmethyl)-1H-benzo[d]imidazole-6-carboxylic acid] and `Cc1ccc(OCc2ccc(C(=O)N3CCN(Cc4nc5ccc(C(=O)O)cc5n4C[C@@H]4CCO4)CC3)o2)cc1` [Compound 42, 2-[(4-{5-[(4-methylphenoxy)methyl]furan-2-carbonyl}piperazin-1-yl)methyl]-1-{[(2S)-oxetan-2-yl]methyl}-1H-1,3-benzodiazole-6-carboxylic acid] cannot be ordered by EC50: > 500 nM for the first, > 500 nM for the second.

Compared with `C[C@H]1C[C@@H](Oc2ccnc(COc3ccc(C(F)(F)F)cc3F)n2)CCN1Cc1nc2ccc(C(=O)O)cc2n1C[C@@H]1CCO1` [Compound 376], `O=C(O)c1ccc2nc(CN3CCc4[nH]c5ccc(OC(F)(F)F)cc5c4C3)n(C[C@@H]3CCO3)c2c1` [Compound 53, 1-{[(2S)-oxetan-2-yl]methyl}-2-{[8-(trifluoromethoxy)-1H,2H,3H,4H,5H-pyrido[4,3-b]indol-2-yl]methyl}-1H-1,3-benzodiazole-6-carboxylic acid] is higher in EC50: < 50 nM for the first, > 500 nM for the second.

`N#Cc1ccc(COc2cccc(C(=O)N3CCN(Cc4nc5ccc(C(=O)O)cc5n4C[C@@H]4CCO4)CC3)c2)c(F)c1` [Compound 66, 2-[(4-{3-[(4-cyano-2-fluorophenyl)methoxy]benzoyl}piperazin-1-yl)methyl]-1-{[(2S)-oxetan-2-yl]methyl}-1H-1,3-benzodiazole-6-carboxylic acid] and `C[C@@H](Oc1ccc(Cl)cc1Cl)c1ccc(C(=O)N2CCN(Cc3nc4ccc(C(=O)O)cc4n3C[C@@H]3CCO3)CC2)o1` (relative stereo) [Example 94, 2-((4-(5-((R)-1-(2,4-dichlorophenoxy)ethyl)furan-2-carbonyl)piperazin-1-yl)methyl)-1-(((S)-oxetan-2-yl)methyl)-1H-benzo[d]imidazole-6-carboxylic acid] cannot be ordered by EC50: > 500 nM for the first, > 500 nM for the second.

`O=C(c1ccc(-c2nnn[nH]2)nc1)N1CCC(Cc2ccc(COc3ccc(Cl)cc3Cl)o2)CC1` [Compound 107, 5-[4-({5-[(2,4-dichlorophenoxy)methyl]furan-2-yl}methyl)piperidine-1-carbonyl]-2-(1H-1,2,3,4-tetrazol-5-yl)pyridine] was tested, and the EC50 was > 500 nM.
